Reference: ChEMBL document CHEMBL1156829 (Proc Natl Acad Sci U S A, 2008)

Key:
[1] = system: Plasmodium falciparum; test: NOVARTIS: Inhibition of Plasmodium falciparum 3D7 (drug-susceptible) proliferation in erythrocyte-based infection assay; assay type: functional, organism-based; conditions: Plasmodium falciparum, 3D7
[2] = system: Plasmodium falciparum; test: NOVARTIS: Inhibition of Plasmodium falciparum W2 (drug-resistant) proliferation in erythrocyte-based infection assay; assay type: functional, organism-based; conditions: Plasmodium falciparum, W2; read-out: EC50
[3] = NOVARTIS: Cytotoxicity against human hepatocellular carcinoma cell line (Huh7); assay type: toxicity, cell-based, Huh-7; conditions: Huh7 cells (hepatocellular carcinoma cell line)

Row | SMILES | EC50 [1] [nM] | EC50 [2] [nM] | CC50 [3] [nM]
1 | CCCN(CCC)C(=O)Cn1ccc(=N)c2ccccc21 | 1200 | 671 | > 100000
2 | CCOC(=O)C1=C(C)NC2=C(C(=O)CC(c3ccc(OC)cc3)C2)C1c1cccc(F)c1 (configuration not stated) | 137 | 50.4 | > 100000
3 | Cc1cccc(OCC(O)CN2CCN(CC(=O)c3ccc(Br)cc3)CC2)c1 (configuration not stated) | > 1250 | 896 | 214
4 | CC(=O)N1CC(=NNC(=O)C(C)Nc2c(C)cccc2C)c2ccccc21 (configuration not stated) | 1960 | 1420 | > 10000
5 | O=C(O)CC/C(=C1/C=C(c2ccc(Cl)cc2)NC1=O)c1ccc(Cl)cc1 | > 1650 | 256 | > 10000
6 | COc1cc(OC)cc(C(=O)NCc2n[nH]c(=S)n2-c2ccc(Br)cc2)c1 | 325 | 252 | > 100000
7 | Clc1ccc(C2Nc3ccc4ccccc4c3C3C=CCC32)c(Cl)c1 (configuration not stated) | > 1250 | > 1200 | > 10000
8 | COC(=O)C1=C(C(=O)OC)SC(=C2C(=S)C(C)(C)Nc3cc(C)ccc32)S1 | > 1140 | > 1250 | > 10000
9 | COc1ccc(Nc2nc(NN=Cc3cccc([N+](=O)[O-])c3)nc(Nc3ccc([N+](=O)[O-])cc3)n2)cc1 | 406 | 404 | > 100000
10 | O=C1NN(c2ccc(Br)cc2)C(=O)C1=Cc1c(O)ccc2ccccc12 | 4880 | 818 | > 100000
11 | OCCNc1nc(Nc2cccc(O)c2)nc2ccccc12 | 203 | 1010 | 69400
12 | CCN(CC)S(=O)(=O)c1ccc(C(=O)NCc2nnc(SCC(=O)N3CCc4ccccc43)n2-c2ccccc2OC)cc1 | > 1250 | 26.7 | > 10000
13 | Cc1cc(Nc2cccc3ccccc23)nc(Nc2cccc3ccccc23)n1 | 274 | 395 | > 10000
14 | Cc1ccn2c(NC(C)(C)CC(C)(C)C)c(-c3ccccc3OC(=O)/C=C/c3ccc([N+](=O)[O-])cc3)nc2c1 | > 1390 | 63.7 | > 10000
15 | CCOc1cc(-c2nnc3[nH]c(=O)n(C)c(=O)c3n2)ccc1OC(C)C | 1100 | 394 | > 100000
16 | CCC(/C=C1\Sc2ccc(OC)cc2N1CCCS(=O)(=O)O)=C\c1sc2ccc(OC)cc2[n+]1CCCS(=O)(=O)O | 473 | 1040 | 10000
17 | Ic1ccc(NCc2cn3ccccc3n2)cc1 | 6370 | 4070 | > 100000
18 | CSc1c(C(=O)Nc2ccc(Br)cc2)ccc2c1C(=O)c1ccccc1C2=O | > 1250 | > 640 | > 10000
19 | CCCNC(=O)N1CCC2(CC1)CC(=O)c1ccccc1O2 | > 1250 | 1770 | > 10000
20 | CC(C)CCN(CCC(C)C)CC(O)Cn1c2ccc(Cl)cc2c2cc(Cl)ccc21 (configuration not stated) | 292 | 82.8 | > 100000
21 | Brc1ccc2c(c1)c1ccccc1n2CC1CO1 (configuration not stated) | 4730 | 2250 | 29400
22 | C=C1C=CN(Cc2ccccc2)c2ccc(OC)cc21 | 451 | 330 | > 10000
23 | O=C(C=Cc1ccc(Br)cc1)NC(=O)c1ccccc1O | 684 | 2040 | > 100000

Row | SMILES | EC50 [1] [nM] | EC50 [2] [nM] | CC50 [3] [nM]
24 | c1ccc(Cc2cc[n+](Cc3ccccc3)cc2)cc1 | 144 | 72.5 | > 100000
25 | O=C(Nc1ccc2c(c1)S(=O)(=O)c1cc(NC(=O)c3cccs3)ccc1-2)c1cccs1 | 1110 | > 1250 | > 10000
26 | O=C(C1CCN(C(c2ccc(F)cc2)c2ccc(F)cc2)CC1)N1CCCC1 | > 586 | 447 | > 10000
27 | COc1ccccc1N1C(=N)SC(=Cc2ccc(N(C)C)cc2)C1=O | 101 | 52.5 | 2220
28 | CCCCN(CC)C(=O)CSc1nc2ccccc2c(=O)n1Cc1ccco1 | > 594 | > 1250 | > 10000
29 | CCOP1(=O)COc2ccccc2OC1 | > 1140 | > 1380 | > 10000
30 | COCCNC(=O)CN1C(=O)CC(C)(C)Sc2ccccc21 | > 1250 | > 19.8 | > 10000
31 | CCC1(C)CC(CCNCc2ccccc2O)(c2ccccc2OC)CCO1 (configuration not stated) | 348 | 96.1 | 23900
32 | Nc1cc(C(=O)Nc2cccc(C3=NCCN3)c2)ccc1C(=O)Nc1cccc(C2=NCCN2)c1 | 199 | 110 | > 100000
33 | CC(C)NC(=O)c1cn(Cc2ccccc2)cc(C(=O)NCCc2nc3ccccc3[nH]2)c1=O | 3340 | 2220 | > 100000
34 | CCOC(=O)C1=C(C)NC(=Cc2cc(C)n(-c3ccc(C)cc3C)c2C)C1=O | 64.4 | 78.5 | > 100000
35 | O=C(OCCOc1ccc([N+](=O)[O-])cc1)c1ccc(Br)o1 | 782 | > 1250 | > 10000
36 | c1ccc(-c2ccc(-c3ccccn3)nc2)nc1 | 287 | 141 | 360
37 | N#Cc1cc2nc3c(nc2cc1C#N)-c1ccccc1C3=O | 6970 | 2560 | 33200
38 | CCN(CC)CCCC(C)Nc1ccnc2ccc([N+](=O)[O-])cc12 (configuration not stated) | 249 | 747 | > 10000
39 | OC(CCN1CCN(C(c2ccccc2)c2ccccc2)CC1)c1ccccc1 (configuration not stated) | 4650 | 1030 | > 100000
40 | COc1ccc(-c2nc(NC(=O)CS(=O)(=O)c3ccccc3)sc2C)cc1 | 505 | 2300 | > 100000
41 | CC(=O)Nc1cccc(NC(=O)C(F)(F)F)c1 | 1180 | > 1250 | > 10000
42 | CC(C)c1ccc(NC(=O)c2ccc(NCCCN3CCN(c4cccc(Cl)c4)CC3)c([N+](=O)[O-])c2)cc1 | 1630 | 2810 | > 100000
43 | COc1ccc(-c2nc3cc(Cc4ccc5[nH]c(-c6ccc(OC)cc6)nc5c4)ccc3[nH]2)cc1 | 234 | 775 | 6220
44 | CC1CC(N(C(=O)c2ccc(Cl)cc2Cl)c2ccccc2)c2ccccc2N1C(=O)c1ccc(Cl)cc1 (configuration not stated) | 2780 | 2530 | > 100000
45 | CCCCc1ccc(C(=O)NCCCCNc2ccnc3cc(Cl)ccc23)cc1 | 221 | 311 | > 10000
46 | COc1cc(OC)c(NC(=O)C2c3ccccc3C(=O)N(CC(C)C)C2c2cccs2)cc1Cl (configuration not stated) | 114 | 90.5 | > 100000

Row | SMILES | EC50 [1] [nM] | EC50 [2] [nM] | CC50 [3] [nM]
47 | CCOC(=O)c1cn(CC)c2cc(N(C)CCc3ccc(OC)c(OC)c3)c(F)cc2c1=O | 103 | 26.7 | > 100000
48 | COC(=O)C1=C(C)NC(=Cc2cc(C)n(-c3cc(Cl)ccc3Cl)c2C)C1=O | 711 | 3680 | > 100000
49 | O=C1OC(c2ccccc2)=NC1=C(Cl)Cl | > 1160 | > 1250 | > 10000
50 | CCN(CC)CCCC(C)NCc1ccc(OCc2ccccc2)c(OC)c1 (configuration not stated) | 771 | 494 | > 10000
51 | C=CCN1CCN(C(c2ccccc2F)c2nnnn2Cc2ccco2)CC1 (configuration not stated) | > 12500 | 2910 | > 77000
52 | CCCCCCC(=O)NC1CCC(Nc2ccnc3cc(Cl)ccc23)CC1 (configuration not stated) | 630 | > 1250 | > 10000
53 | CCOc1cc2c(cc1OCC)C(c1ccc(O)c(Cl)c1)NCC2 (configuration not stated) | 157 | 12.5 | > 97900
54 | CCCCCN(C(=O)c1cccc(OC)c1)C(CC)c1nc2ccccc2c(=O)n1-c1ccccc1OC (configuration not stated) | 614 | 318 | > 10000
55 | OC(CCNC1CCCCC1)COc1cccc2ccccc12 (configuration not stated) | 789 | 366 | > 10000
56 | CCOc1ccc(NC(=O)c2ccc(C)o2)cc1 | 3710 | 4430 | 13000
57 | O=[N+]([O-])c1ccc(NCCNc2nc(N3CCCC3)nc3ccccc23)cc1 | 564 | 334 | 19200
58 | O=C(Nc1ccc(Oc2cccc(Oc3ccc(NC(=O)c4ccc(Br)o4)cc3)c2)cc1)c1ccc(Br)o1 | 4420 | 4710 | > 100000
59 | COc1ccc(C(=O)N2C(C(=O)Nc3ccccc3F)CSC2c2ccc(C(C)(C)C)cc2)cc1 (configuration not stated) | 940 | 801 | > 3600
60 | CCOC(=O)c1oc2cc(O)c(CC)cc2c(=O)c1-c1ccc2c(c1)OCO2 | > 834 | > 1250 | > 10000
61 | Oc1ccc(-c2cnccn2)cc1CNC1CCN(Cc2ccccc2)CC1 | 385 | 380 | 82800
62 | CCOC(=O)C1=C(C)NC2=C(C(=O)CC(c3ccc(OC)c(OC)c3)C2)C1c1cccc(Br)c1 (configuration not stated) | 171 | 65.9 | > 100000
63 | CCC(=O)c1c(C)n(-c2ccc(Br)cc2)c2ccc(O)cc12 | > 769 | 1140 | > 10000
64 | CCOC(=O)NN=C1c2ccccc2-c2nc3nonc3nc21 | 1450 | 1180 | > 10000
65 | COc1ccc(C2CC(=O)C3=C(C2)NC(C)=C(C(=O)OC(C)C)C3c2ccccc2Br)cc1OC (configuration not stated) | 13.7 | 7.84 | 23300
66 | COc1ccccc1CNC(=O)c1nn(-c2ccc(Cl)cc2)c(=O)c2ccccc12 | 1090 | 2820 | > 100000
67 | O=C(c1ccc2c(c1)OCO2)N1CCOC(c2ccc(Cl)cc2)C1 (configuration not stated) | 1630 | 4110 | > 100000
68 | COc1cc[n+](OC(=O)N2CCCCC2)c(C)c1 | 188 | 810 | 36600
69 | COc1ccc(CCNC(=O)c2cc(S(=O)(=O)N3CC(C)CC(C)C3)ccc2Sc2ccc(F)cc2)cc1OC (configuration not stated) | 1050 | 1260 | > 10000
